Consider eleven compounds from patent US5089497A, “Substituted piperazines as central nervous system agents” (Warner-Lambert Company, priority 1990, dated 1992).

Experiment [1] concerns Locomotor Activity in Mice. The experiment in a line: Inhibition of locomotor activity in mice. It is filed as in vivo. The note with it: Mus musculus, IP. The text has this: The above test methods are incorporated herein by reference.
For the next experiment, the system named is Brain Dopamine Synthesis. In words: Reversal of brain dopamine synthesis in rats (inhibition of dopamine synthesis). To be noted: at 10 mg/kg, IP. It is filed as in vivo. The procedure:
(§1) The compounds of Formula I are valuable dopaminergic agents. […] Thus, the compounds of Formula I were tested for their ability to inhibit locomotor activity in mice according to the assay described by J. R. McLean, et al, Pharmacology, Biochemistry and Behavior, Volume 8, pages 97-99 (1978); for their ability to inhibit [^3 H]spiroperidol binding in a receptor assay described by D. Grigoriadis and P. Seeman, Journal of Neurochemistry, Volume 44, pages 1925-1935 (1985); and for their ability to inhibit dopamine synthesis in rats according to the protocol described by J. R. Walters and R. H. Roth, Naunyn-Schmiedeberg's Archives of Pharmacology, Volume 296, pages 5-14 (1976). The above test methods are incorporated herein by reference. The data in the table show the dopaminergic activity of representative compounds of Formula I.

Experiment [2] deals with T1, [^3 H]Spiroperidol Binding (Homo sapiens, UniProt P14416).
T1 construct: from tissue; host or cells: brain (striatum) membranes
In words: Inhibition of [^3 H]spiroperidol binding in a receptor assay. The procedure:
as §1

T1 sequence (P14416 whole entry): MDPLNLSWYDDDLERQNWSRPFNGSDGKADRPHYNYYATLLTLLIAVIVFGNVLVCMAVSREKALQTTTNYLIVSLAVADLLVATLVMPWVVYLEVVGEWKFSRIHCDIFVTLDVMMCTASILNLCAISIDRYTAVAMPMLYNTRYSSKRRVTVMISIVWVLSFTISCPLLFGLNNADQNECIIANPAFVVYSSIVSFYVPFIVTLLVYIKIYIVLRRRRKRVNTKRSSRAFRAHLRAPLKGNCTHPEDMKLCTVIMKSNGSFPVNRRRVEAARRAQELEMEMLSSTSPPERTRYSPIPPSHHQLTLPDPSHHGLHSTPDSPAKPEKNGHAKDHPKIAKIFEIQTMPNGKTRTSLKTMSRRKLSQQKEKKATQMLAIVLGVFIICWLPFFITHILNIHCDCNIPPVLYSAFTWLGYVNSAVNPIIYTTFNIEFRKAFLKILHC

In general, ED50 refers to the midpoint of the dose-response relation. Higher therefore signals weaker potency. The IC50 is the concentration needed to halve the response being measured. Read a high IC50 as weaker potency in that assay. In experiment [1], `c1ccc(N2CCN(CCCCc3cnc4ccccc4c3)CC2)nc1` [Example 11] returned an ED50 of 2.2 mg/kg. Also, in the experiment with Brain Dopamine Synthesis, the “% Reversal of Brain Dopamine Synthesis in Rats” value (“% Reversal” for short) was found to be 100%. Further, the IC50 in experiment [2] is 155 nM.
In the same order, the values of `c1ccc(N2CCN(CCCCc3ccncc3)CC2)nc1` [Example 9] are 4 mg/kg, 79% and 835 nM.
`c1ccc(N2CCN(CCCCc3ccnc4ccccc34)CC2)nc1` [Example 13, 4-[4-[4-(2-Pyridinyl)-1-piperazinyl]butyl]quinoline] had an ED50 in experiment [1] of 3.2 mg/kg. Besides, the IC50 in experiment [2] turned out to be 279 nM.
In experiment [1], `c1cnc(N2CCN(CCCCc3cnc4ccccc4c3)CC2)nc1` [Example 12, 3-[4-[4-(2-Pyrimidinyl)-1-piperazinyl]butyl]quinoline] had an ED50 of 1.2 mg/kg.
In experiment [1], `c1ccc(N2CCN(CCCc3cccnc3)CC2)nc1` [Example 1, 1-(2-Pyridinyl)-4-[3-(3-pyridinyl)propyl]piperazine] registered an ED50 of 3.1 mg/kg.
In the case of `c1cnc(N2CCN(CCCCc3ccncc3)CC2)nc1` [Example 10, 2-[4-[4-(4-Pyridinyl)butyl]-1-piperazinyl]pyrimidine], the ED50 in experiment [1] is 10.1 mg/kg. In addition, in the experiment with Brain Dopamine Synthesis, the “% Reversal” value was 35%. Besides, the IC50 in experiment [2] is 4180 nM.
The compound `O=C(CCCN1CCN(c2ccccn2)CC1)c1ccncc1` [Example 4, 1-(4-Pyridinyl)-4-[4-(2-pyridinyl)-1-piperazinyl]-1-butanone] yielded an ED50 in experiment [1] of 7.6 mg/kg. In addition, the “% Reversal” value with Brain Dopamine Synthesis was determined as 35%. This compound also displayed an IC50 in experiment [2] of 2130 nM.
In the same order, the values of `O=C(CCCN1CCN(c2ccccn2)CC1)c1cccnc1` [Example 2, 1-(3-Pyridinyl)-4-[4-(2-pyridinyl)-1-piperazinyl]-1-butanone] are 6.3 mg/kg, 43% and 2870 nM.
Compound `c1ccc(N2CCN(CCCCc3cccnc3)CC2)nc1` [Example 8, 1-(2-Pyridinyl)-4-[4-(3-pyridinyl)butyl]piperazine] had an ED50 in experiment [1] of 2.7 mg/kg. Moreover, in the experiment on Brain Dopamine Synthesis, the “% Reversal” value is listed as 67%.
In experiment [1], `O=C(CCCN1CCN(c2ccccn2)CC1)c1ccnc2ccccc12` [Example 7, 1-(4-Quinolinyl)-4-[4-(2-pyridinyl)-1-piperazinyl]-1-butanone] displayed an ED50 of 13 mg/kg.
`O=C(CCCN1CCN(c2ccccn2)CC1)c1cnc2ccccc2c1` [Example 6, 1-(3-Quinolinyl)-4-[4-(2-pyridinyl)-1-(piperazinyl)]-1-butanone] showed an ED50 in experiment [1] of 2.8 mg/kg. This compound also had a concentration for half-maximal inhibition (IC50) in experiment [2] of 486 nM.
